Experimental data: ChEMBL document CHEMBL1770133, “Design of potent and selective GPR119 agonists for type II diabetes” (Bioorg Med Chem Lett, 2011)
≈ marks a conversion by molar mass, not a printed value.

Columns and labels:
[1] = Volume of distribution at steady state in mouse at 1 mg/kg, iv and 10 mg/kg, po; assay type: ADME, organism-based; settings: in vivo, read-out: Vdss
[2] = Half life in mouse at 1 mg/kg, iv and 10 mg/kg, po; assay type: ADME, organism-based; settings: in vivo
[3] = system: Mus musculus; experiment: Dose normalized AUC in mouse at 1 mg/kg, iv and 10 mg/kg, po; assay type: ADME, organism-based; settings: in vivo
[4] = biological target: T1, Voltage-gated inwardly rectifying potassium channel KCNH2 (Homo sapiens, UniProt Q12809); experiment: Inhibition of human ERG by patch clamp technique
T1 sequence (Q12809 whole entry): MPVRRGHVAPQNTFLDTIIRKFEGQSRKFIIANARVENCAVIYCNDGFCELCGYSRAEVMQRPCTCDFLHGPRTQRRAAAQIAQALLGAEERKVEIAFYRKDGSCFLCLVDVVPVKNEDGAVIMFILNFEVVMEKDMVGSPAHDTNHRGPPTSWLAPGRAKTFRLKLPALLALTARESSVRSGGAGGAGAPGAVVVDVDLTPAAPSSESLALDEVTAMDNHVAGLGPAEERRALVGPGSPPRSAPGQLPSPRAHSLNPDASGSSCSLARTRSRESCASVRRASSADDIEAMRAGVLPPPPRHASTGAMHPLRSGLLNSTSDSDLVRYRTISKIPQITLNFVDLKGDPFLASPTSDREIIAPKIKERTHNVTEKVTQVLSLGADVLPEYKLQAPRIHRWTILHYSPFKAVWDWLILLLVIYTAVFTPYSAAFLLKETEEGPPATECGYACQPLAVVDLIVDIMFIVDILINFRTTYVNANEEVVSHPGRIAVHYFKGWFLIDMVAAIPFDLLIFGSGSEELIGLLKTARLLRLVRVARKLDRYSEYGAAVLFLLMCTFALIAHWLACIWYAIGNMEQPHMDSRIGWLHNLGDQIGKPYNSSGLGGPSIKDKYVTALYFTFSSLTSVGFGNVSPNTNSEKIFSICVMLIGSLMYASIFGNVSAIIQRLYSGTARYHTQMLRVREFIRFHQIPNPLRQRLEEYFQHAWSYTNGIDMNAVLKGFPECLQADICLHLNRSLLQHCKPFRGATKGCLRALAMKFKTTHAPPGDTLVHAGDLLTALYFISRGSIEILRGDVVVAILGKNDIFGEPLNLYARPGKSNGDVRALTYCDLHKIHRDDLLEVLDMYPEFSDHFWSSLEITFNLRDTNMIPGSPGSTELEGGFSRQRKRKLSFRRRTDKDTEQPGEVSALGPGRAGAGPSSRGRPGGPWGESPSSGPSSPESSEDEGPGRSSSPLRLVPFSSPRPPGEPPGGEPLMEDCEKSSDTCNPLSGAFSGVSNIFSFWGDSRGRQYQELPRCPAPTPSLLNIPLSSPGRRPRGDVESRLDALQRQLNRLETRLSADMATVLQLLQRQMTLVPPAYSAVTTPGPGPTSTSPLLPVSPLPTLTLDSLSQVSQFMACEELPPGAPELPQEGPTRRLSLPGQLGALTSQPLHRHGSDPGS

[5] = Solubility of compound in PEG400 after 3 to 7 days; assay type: physicochemical
[6] = system: Mus musculus; experiment: Antidiabetic activity in high fat fed po dosed C57BL/6 mouse assessed as change in AUC of blood glucose level administered 1 hr before glucose challenge measured up to 120 mins by oral glucose tolerance test; assay type: functional; settings: C57BL6, Blood, read-out: MED
[7] = species on record: Canis familiaris; experiment: Cardiotoxicity in dog assessed as QTc prolongation; assay type: toxicity, organism-based, Canis lupus familiaris; settings: in vivo
[8] = Clearance in mouse at 1 mg/kg, iv and 10 mg/kg, po; assay type: ADME, organism-based; settings: in vivo
[9] = biological target: T2, Glucose-dependent insulinotropic receptor (Homo sapiens, UniProt Q8TDV5); experiment: Agonist activity at human GPR119 expressed in CHO cells co-expressing Galpha15 assessed as increase of intracellular cAMP accumulation after 60 mins by HTRF assay; assay type: functional, cell-based
T2 sequence (Q8TDV5 whole entry): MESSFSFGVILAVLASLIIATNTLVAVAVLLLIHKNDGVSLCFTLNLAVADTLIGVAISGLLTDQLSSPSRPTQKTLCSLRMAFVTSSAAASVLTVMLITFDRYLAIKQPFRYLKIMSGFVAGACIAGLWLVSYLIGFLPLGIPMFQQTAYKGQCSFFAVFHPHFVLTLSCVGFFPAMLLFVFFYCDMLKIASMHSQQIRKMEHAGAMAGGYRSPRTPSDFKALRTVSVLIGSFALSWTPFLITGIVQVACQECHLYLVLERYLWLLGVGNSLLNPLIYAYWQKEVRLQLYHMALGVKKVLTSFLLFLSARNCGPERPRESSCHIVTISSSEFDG

[10] = biological target: T3, Glucose-dependent insulinotropic receptor (Mus musculus, UniProt Q7TQP3); experiment: Agonist activity at mouse GPR119 expressed in CHO cells co-expressing Galpha15 assessed as increase of intracellular cAMP accumulation after 60 mins by HTRF assay; assay type: functional, cell-based
T3 sequence (Q7TQP3 whole entry): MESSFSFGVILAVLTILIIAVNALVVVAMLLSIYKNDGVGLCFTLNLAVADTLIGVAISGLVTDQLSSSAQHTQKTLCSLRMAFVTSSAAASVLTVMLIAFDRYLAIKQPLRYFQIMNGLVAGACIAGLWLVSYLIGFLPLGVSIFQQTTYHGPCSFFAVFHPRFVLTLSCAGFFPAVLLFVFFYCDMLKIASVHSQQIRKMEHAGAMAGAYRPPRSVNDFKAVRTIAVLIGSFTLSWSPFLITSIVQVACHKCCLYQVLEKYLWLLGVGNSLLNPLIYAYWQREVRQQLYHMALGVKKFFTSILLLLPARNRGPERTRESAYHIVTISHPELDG

[11] = biological target: T1, Voltage-gated inwardly rectifying potassium channel KCNH2; experiment: Inhibition of human ERG
[12] = system: Mus musculus; experiment: Antidiabetic activity in high fat fed C57BL/6 mouse assessed as change in AUC of blood glucose level at 30 mg/kg, po qd administered 1 hr before glucose challenge measured up to 120 mins by oral glucose tolerance test relative to control; assay type: functional, C57BL6
[13] = system: Mus musculus; experiment: Antidiabetic activity in high fat fed C57BL/6 mouse assessed as change in AUC of blood glucose level at 1 mg/kg, po qd administered 1 hr before glucose challenge measured up to 120 mins by oral glucose tolerance test relative to control; assay type: functional, C57BL6
[14] = system: Mus musculus; experiment: Antidiabetic activity in high fat fed C57BL/6 mouse assessed as change in AUC of blood glucose level at 3 mg/kg, po qd administered 1 hr before glucose challenge measured up to 120 mins by oral glucose tolerance test relative to control; assay type: functional, C57BL6
[15] = system: Mus musculus; experiment: Antidiabetic activity in high fat fed C57BL/6 mouse assessed as change in AUC of blood glucose level at 10 mg/kg, po qd administered 1 hr before glucose challenge measured up to 120 mins by oral glucose tolerance test relative to control; assay type: functional, C57BL6
[16] = biological target: T4, Glucose-dependent insulinotropic receptor (Homo sapiens) (UniProt Q8TDV5); experiment: Agonist activity at human GPR119 expressed in CHO cells co-expressing Galpha15 assessed as increase of intracellular cAMP accumulation at 10 uM after 60 mins by HTRF assay; assay type: functional, cell-based
T4 sequence (whole entry): T2 sequence (Q8TDV5 whole entry)

[17] = biological target: T5, Glucose-dependent insulinotropic receptor (Mus musculus) (UniProt Q7TQP3); experiment: Agonist activity at mouse GPR119 expressed in CHO cells co-expressing Galpha15 assessed as increase of intracellular cAMP accumulation at 10 uM after 60 mins by HTRF assay; assay type: functional, cell-based
T5 sequence (whole entry): T3 sequence (Q7TQP3 whole entry)

SMILES	EC50 [9] [µM]	EC50 [10] [µM]	also measured
CS(=O)(=O)c1ccc(OCC[C@@H]2C[C@@H]2C2CCN(c3ncc(Cl)cn3)CC2)nc1	0.004	0.004	Vd [1]: 2.1 L/kg; half-life [2]: 12.4 h; AUC [3]: 12.1 µM·kg·h/mg; IC50 [4]: 19 µM; solubility [5]: 7.1 mg/mL (≈ 16.2 mM); minimal effective dose [6]: 1 mg/kg; Activity [7]: Non-toxic; clearance [8]: 0.126 L/h/kg
O=C(NC1CC1)c1ccc(OCC2CC2C2CCN(c3ncc(Cl)cn3)CC2)cc1F (racemic; 51)	0.038	0.009	
O=C(NC1CC1)c1ccc(OCCC2CC2C2CCN(c3ncc(Cl)cn3)CC2)cc1F (single isomer, unassigned; (+))	0.014	0.005	IC50 [11]: > 30 µM
O=C(NC1CC1)c1ccc(OCC2CC2CC2CCN(c3ncc(Cl)cn3)CC2)cc1F (racemic; 56)	0.018	0.036	IC50 [11]: 1.2 µM
CC(C)(C)OC(=O)N1CCC(C2CCN(c3cnccn3)CC2)CC1	0.103	0.142	
CS(=O)(=O)c1ccc(N2CCC(C3CCN(c4ncc(Cl)cn4)CC3)CC2)cc1	0.005	0.008	
CC(C)(C)OC(=O)N1CCC(C2CCN(c3ccccn3)CC2)CC1	0.831	2.5	
CC(=O)c1ccc(N2CCC(C3CCN(C(=O)OC(C)(C)C)CC3)CC2)cc1	0.025	0.341	
O=C(NC1CC1)c1ccc(OCCC2CC2C2CCN(c3ncc(Cl)cn3)CC2)cc1F (racemic)	0.0003	0.0004	IC50 [11]: > 30 µM
Cc1ccc(N2CCC(C3CCN(c4ccc(S(C)(=O)=O)cc4)CC3)CC2)nc1	0.018	0.073	
CS(=O)(=O)c1ccc(N2CCC(C3CCN(c4ccc(C(F)(F)F)cn4)CC3)CC2)cc1	0.013	0.008	
O=C(NC1CC1)c1ccc(OCCC2CC2C2CCN(c3ncc(Cl)cn3)CC2)cc1F (single isomer, unassigned; (-))	0.003	0.002	IC50 [11]: 2.6 µM
CS(=O)(=O)c1ccc(N2CCC(C3CCN(c4ccc(C#N)cn4)CC3)CC2)cc1	0.062	0.041	
Clc1cnc(N2CCC([C@H]3C[C@H]3CCOc3ccc(-n4ccnn4)cc3)CC2)nc1	0.004	0.006	solubility [5]: 5 mg/mL (≈ 11.8 mM); minimal effective dose [6]: 10 mg/kg
Cc1cnc(N2CCC(C3CCN(c4cc(C)nc(C#N)n4)CC3)CC2)cn1	0.019	0.064	Activity [12]: 35%; Activity [13]: 7%; Activity [14]: 26%; Activity [15]: 30%
CC(C)(C)OC(=O)N1CCC(C2CCN(c3cc(C#N)ncn3)CC2)CC1	0.006	0.031	
CS(=O)(=O)c1ccc(N2CCC(C3CCN(c4ccc(Cl)cn4)CC3)CC2)cc1	0.048	0.131	Vd [1]: 2.3 L/kg; half-life [2]: 13.5 h; AUC [3]: 19.3 µM·kg·h/mg; clearance [8]: 0.12 L/h/kg
CC(C)(C)OC(=O)N1CCC(C2CCN(c3cccc(C(N)=O)c3)CC2)CC1			Activity [16]: < 10%; Activity [17]: < 10%
CC(C)(C)OC(=O)N1CCC(C2CCN(c3ccccc3)CC2)CC1	1.4		Activity [17]: < 10%
Cc1ccccc1N1CCC(C2CCN(C(=O)OC(C)(C)C)CC2)CC1			Activity [16]: < 10%; Activity [17]: < 10%
Cc1cnc(N2CCC(C3CCN(c4cc(C#N)nc(C)n4)CC3)CC2)nc1	0.008	0.01	IC50 [11]: 1.8 µM; Activity [12]: 46%
Cc1cc(N2CCC(C3CCN(C(=O)OC(C)(C)C)CC3)CC2)nc(C#N)n1	0.001	0.002	
CC(C)(C)OC(=O)N1CCC(C2CCN(c3ccc(C(N)=O)cc3)CC2)CC1	0.076	0.165	
CC(C)(C)OC(=O)N1CCC(C2CCN(c3cccnc3)CC2)CC1	3.6		Activity [17]: < 10%
